These results are taken from article PMC9602792, “Preclinical evaluation of the epithelial sodium channel inhibitor AZD5634 and implications on human translation” (American Journal of Physiology - Lung Cellular and …, 2022).

The target of the assay is T1, ENaC (Homo sapiens, UniProt P37088+P51168+P51170).
T1 construct: host or cells: primary normal human bronchial epithelial cells, ALI culture
T1 sequence (P37088 1-669): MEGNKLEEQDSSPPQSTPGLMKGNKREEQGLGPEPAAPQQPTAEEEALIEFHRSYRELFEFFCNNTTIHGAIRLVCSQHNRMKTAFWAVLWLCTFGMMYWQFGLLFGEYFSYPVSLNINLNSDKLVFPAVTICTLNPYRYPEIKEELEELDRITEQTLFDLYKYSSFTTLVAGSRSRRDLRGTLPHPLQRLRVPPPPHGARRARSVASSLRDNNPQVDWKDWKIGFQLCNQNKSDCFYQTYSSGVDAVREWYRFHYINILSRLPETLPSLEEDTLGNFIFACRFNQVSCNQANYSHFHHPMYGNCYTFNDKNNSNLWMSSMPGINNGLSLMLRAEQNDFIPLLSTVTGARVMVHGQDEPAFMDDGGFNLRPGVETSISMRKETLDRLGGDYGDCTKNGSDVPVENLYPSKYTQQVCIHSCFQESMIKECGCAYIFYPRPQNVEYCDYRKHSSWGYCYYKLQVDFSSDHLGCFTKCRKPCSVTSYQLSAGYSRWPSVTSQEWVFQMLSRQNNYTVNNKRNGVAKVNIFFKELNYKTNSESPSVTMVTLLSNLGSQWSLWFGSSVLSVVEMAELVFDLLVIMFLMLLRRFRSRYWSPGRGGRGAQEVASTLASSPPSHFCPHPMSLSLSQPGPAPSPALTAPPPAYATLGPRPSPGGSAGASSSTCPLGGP
T1 sequence (P51168 1-640): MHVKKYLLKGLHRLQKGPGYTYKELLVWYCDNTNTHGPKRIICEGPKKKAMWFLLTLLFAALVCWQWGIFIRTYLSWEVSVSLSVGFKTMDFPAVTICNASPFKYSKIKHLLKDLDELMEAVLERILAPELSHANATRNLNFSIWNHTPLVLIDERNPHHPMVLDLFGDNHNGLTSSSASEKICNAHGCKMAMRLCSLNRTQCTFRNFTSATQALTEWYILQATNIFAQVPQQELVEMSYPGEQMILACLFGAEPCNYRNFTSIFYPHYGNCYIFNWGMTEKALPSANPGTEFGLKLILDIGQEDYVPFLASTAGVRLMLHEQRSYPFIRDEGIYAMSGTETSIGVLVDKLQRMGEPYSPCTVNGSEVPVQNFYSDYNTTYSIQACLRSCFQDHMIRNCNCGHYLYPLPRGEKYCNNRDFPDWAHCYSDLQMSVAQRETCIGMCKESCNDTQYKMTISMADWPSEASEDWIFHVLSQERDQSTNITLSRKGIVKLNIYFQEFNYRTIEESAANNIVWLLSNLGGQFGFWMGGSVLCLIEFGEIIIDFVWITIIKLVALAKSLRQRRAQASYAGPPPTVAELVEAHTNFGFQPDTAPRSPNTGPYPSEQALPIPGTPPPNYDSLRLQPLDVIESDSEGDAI
T1 sequence (P51170 1-649): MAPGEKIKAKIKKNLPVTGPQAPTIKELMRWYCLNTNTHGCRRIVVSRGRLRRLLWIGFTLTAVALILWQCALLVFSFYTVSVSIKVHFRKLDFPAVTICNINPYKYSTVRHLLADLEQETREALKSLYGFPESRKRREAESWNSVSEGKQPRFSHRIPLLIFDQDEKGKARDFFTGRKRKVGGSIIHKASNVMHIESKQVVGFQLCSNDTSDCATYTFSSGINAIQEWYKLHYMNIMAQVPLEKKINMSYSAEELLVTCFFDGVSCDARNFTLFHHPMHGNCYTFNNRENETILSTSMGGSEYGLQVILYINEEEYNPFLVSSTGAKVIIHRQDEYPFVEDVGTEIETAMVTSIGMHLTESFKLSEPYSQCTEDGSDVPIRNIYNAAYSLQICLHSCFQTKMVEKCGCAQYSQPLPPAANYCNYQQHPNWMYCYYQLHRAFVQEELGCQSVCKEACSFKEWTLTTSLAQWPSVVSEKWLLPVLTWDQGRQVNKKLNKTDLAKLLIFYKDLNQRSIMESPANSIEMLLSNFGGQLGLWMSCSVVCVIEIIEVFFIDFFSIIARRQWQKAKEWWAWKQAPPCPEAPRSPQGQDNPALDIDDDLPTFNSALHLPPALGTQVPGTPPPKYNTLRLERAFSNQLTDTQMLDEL
Description: Ussing chamber Isc in F508del-homozygous CF HBEC cultures. In kind it is cell-based. On the procedure:
Using previously described techniques ([2], [37]), epithelial cells were harvested from excised lung tissue derived from CF donors homozygous for F508del CFTR, expanded, and grown until confluency was attained. […] To stimulate fresh mucus secretion and formation of an even ASL layer, the cells were washed 48–72 h before experimentation with PneumaCult ALI media (80 µL), added apically, and then aspirated following 30–45 min incubation at 37°C. The washing process was repeated with a 15-min incubation period and the mucus layer was allowed to reestablish, after which the cells were treated with 1 µL of AZD5634 (1 µM, apical), alone and in combination with lumacaftor and ivacaftor (luma/iva; 3 µM/10 µM, basolateral). PBS (1% DMSO, apical) served as a vehicle control. […] Only passage 1 and 2 monolayers were used for these studies.
CFTR-dependent ion transport electrophysiology was measured in HBEC cultures by Isc using modified P2300 Ussing chambers (Physiologic Instruments, San Diego, CA) as previously described ([37], [38]). […] All chambers were maintained at 37°C and agonist stimulation was initiated within 15 min of placement in the chambers.
Descriptive statistics were calculated and means compared using unpaired or paired t tests, or ANOVA, with post hoc analyses conducted for multiple comparisons where appropriate. For analyses of functional anatomy of en bloc trachea, a mixed linear model was used that corrected for within-animal correlation. All tests were two-sided and were computed using GraphPad Prism (GraphPad Software, Inc., La Jolla, CA). P-values <0.05 were considered significant. Statistics are reported as means ± SE, unless indicated otherwise.

On to `NC(=NCc1ccccc1)NC(=O)c1nc(Cl)c(N)nc1N` [benzamil, reference compound], for which, under “at 100 nM”, the “incremental Isc change” value is listed as −2.7 ± 1.5. Moreover, the “cumulative ΔIsc” value (at the maximum concentration (10,000 nM)) was −12.1 ± 3.5.
